Results published in patent US20250092065A1, “2-(INDAZOL-5-YL)-6-(PIPERIDIN-4-YL)-1,7-NAPHTHYRIDINE DERIVATIVES AND RELATED COMPOUNDS AS MODULATORS FOR SPLICING NUCLEIC ACIDS AND FOR THE TREATMENT OF PROLIFERATIVE DISEASES” (REMIX THERAPEUTICS INC., priority 2022, published 2025).
Where two headings read alike, the source gives them in different places.

What was measured:
Type in all cases: cell-based, human
MYB mRNA = assay: RT-qPCR splicing assay, MYB mRNA canonical (CJ) and alternative (AJ) junction; settings: Homo sapiens; for AC50: MYB alternative junction mRNA, read-out: MYB AJ (increase in AJ mRNA, AC50)
In short: (§1)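 Junction-specific RT-qPCR read-out: CJ and AJ isoform levels, housekeeper-normalized (GAPDH/GUSB/PPIA), ΔΔCt vs DMSO, converted to RQ then % response. Cells: A673 (DMEM/10% FBS, adhered 24 h) or K562 (IMDM/10% FBS). Compound 11-pt 3-fold, top 10 uM, 24 h, 37 °C.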

SMN2 mRNA = assay: RT-qPCR splicing assay, SMN2 mRNA; settings: Homo sapiens, canonical junction qPCR panel, Table 4; read-out: SMN2 IC50 (decrease in CJ mRNA levels)
In short: as §1

HTT mRNA = assay: RT-qPCR splicing assay, HTT mRNA canonical (CJ) and alternative (AJ) junction; settings: Homo sapiens; for AC50: HTT alternative junction mRNA, read-out: HTT AJ (increase in AJ mRNA, AC50)
In short: as §1

[1] = MYB canonical junction mRNA, RT-qPCR, read-out: MYB CJ (decrease in CJ mRNA levels, IC50)
[2] = canonical junction qPCR panel, Table 4, read-out: MYB IC50 (decrease in CJ mRNA levels)
[3] = HTT canonical junction mRNA, RT-qPCR, read-out: HTT CJ (decrease in CJ mRNA levels, IC50)
[4] = canonical junction qPCR panel, Table 4, read-out: HTT IC50 (decrease in CJ mRNA levels)

Compound | AC50 (MYB mRNA; RT-qPCR) [nM] | IC50 (MYB mRNA; [1]) [nM] | IC50 (MYB mRNA; [2]) [nM] | IC50 (SMN2 mRNA) [nM] | AC50 (HTT mRNA; RT-qPCR) [nM] | IC50 (HTT mRNA; [3]) [nM] | IC50 (HTT mRNA; [4]) [nM]
Cc1nc2cc(O)c(-c3ccc4nc(N5CC[C@@H](N[C@H]6C[C@@H](F)C6)C5)ccc4n3)cc2o1 (stereo in doubt) [Compound 395] | 100 to 1000 | 100 to 1000 | 100 to 1000 | < 100 | 100 to 1000 | 100 to 1000 | 100 to 1000
Cc1nc2cc(O)c(-c3ccc4nc(N5CC[C@H](N[C@H]6C[C@@H](F)C6)C5)ccc4n3)cc2o1 (stereo in doubt) [Compound 396] | 100 to 1000 | 100 to 1000 | 100 to 1000 | < 100 | < 100 | < 100 | < 100
Cn1cc2cc(-c3ccc4nc(N5CC[C@@H](NC6(CF)CC6)C5)ccc4n3)c(O)cc2n1 [Compound 354, 5-{6-[(3R)-3-{[1-(fluoromethyl)cyclopropyl]amino}pyrrolidin-1-yl]-1,5-naphthyridin-2-yl}-2-methylindazol-6-ol] | < 100 | < 100 | < 100 | < 100 | < 100 | < 100 | < 100
Cn1cc2cc(-c3ccc4nc(N5CC[C@H](NC6(CF)CC6)C5)ccc4n3)c(O)cc2n1 [Compound 355, 5-{6-[(3S)-3-{[1-(fluoromethyl)cyclopropyl]amino}pyrrolidin-1-yl]-1,5-naphthyridin-2-yl}-2-methylindazol-6-ol] | < 100 | < 100 | < 100 | < 100 | < 100 | < 100 | < 100
Cc1c(O)c(-c2ccc3nc(N4CCC(NC5(CF)CC5)C4)ccc3n2)cc2cn(C)nc12 (stereo not shown) [Compound 360, 5-[6-(3-{[1-(fluoromethyl)cyclopropyl]amino}pyrrolidin-1-yl)-1,5-naphthyridin-2-yl]-2,7-dimethylindazol-6-ol] | < 100 | < 100 | < 100 | < 100 | < 100 | < 100 | < 100
Cc1c(O)c(-c2cc(C(C)O)c3nc(N4CCNCC4)ccc3n2)cc2cn(C)nc12 (stereo not shown) [Compound 364, 5-[4-(1-hydroxyethyl)-6-(piperazin-1-yl)-1,5-naphthyridin-2-yl]-2,7-dimethylindazol-6-ol] | 1000 to 10000 | 1000 to 10000 | 1000 to 10000 | 100 to 1000 | > 10000 | > 10000 | > 10000
Cc1c(O)c(-c2ncc3nc(C4CCNCC4)ccc3n2)cc2cn(C)nc12 [Compound 370, 2,7-dimethyl-5-[6-(piperidin-4-yl)pyrido[3,2-d]pyrimidin-2-yl]indazol-6-ol] | 100 to 1000 | 100 to 1000 | 100 to 1000 | < 100 | 1000 to 10000 | 100 to 1000 | 100 to 1000
Cc1nc2c(F)c(O)c(-c3ccc4nc(N5CC[C@H](N[C@H]6C[C@@H](F)C6)C5)ccc4n3)cc2o1 [Compound 374, 4-fluoro-2-methyl-6-[6-(3-{[(1r,3r)-3-fluorocyclobutyl]amino}pyrrolidin-1-yl)-1,5-naphthyridin-2-yl]-1,3-benzoxazol-5-ol] | < 100 | < 100 | < 100 | < 100 | < 100 | < 100 | < 100
CNC1CCN(c2ccc3nc(-c4cc(C#N)c5nc(C)cn5c4)ncc3n2)C1 (stereo not shown) [Compound 382, 2-methyl-6-{6-[3-(methylamino)pyrrolidin-1-yl]pyrido[3,2-d]pyrimidin-2-yl}imidazo[1,2-a]pyridine-8-carbonitrile] | < 100 | < 100 | < 100 | < 100 | 100 to 1000 | 100 to 1000 | 100 to 1000
Cn1cc2cc(-c3ccc4nc(N5CC[C@H](NC6CC(F)(F)C6)C5)ccc4n3)c(O)cc2n1 [Compound 384] | 100 to 1000 | 100 to 1000 | 100 to 1000 | < 100 | 1000 to 10000 | 1000 to 10000 | 1000 to 10000
Cn1cc2cc(-c3ccc4nc(N5CC[C@@H](NC6CC(F)(F)C6)C5)ccc4n3)c(O)cc2n1 [Compound 385] | 100 to 1000 | 100 to 1000 | 100 to 1000 | < 100 | 100 to 1000 | < 100 | < 100
Cn1cc2cc(-c3ccc4nc(N5CCC(NCC6CC6)C5)ccc4n3)c(O)c(F)c2n1 (stereo not shown) [Compound 387, 5-(6-{3-[(cyclopropylmethyl)amino]pyrrolidin-1-yl}-1,5-naphthyridin-2-yl)-7-fluoro-2-methylindazol-6-ol] | < 100 | < 100 | < 100 | < 100 | < 100 | < 100 | < 100
CC(C)NC1CCN(c2ccc3nc(-c4cc5cn(C)nc5c(F)c4O)ccc3n2)C1 (stereo not shown) [Compound 388, 7-fluoro-5-{6-[3-(isopropylamino)pyrrolidin-1-yl]-1,5-naphthyridin-2-yl}-2-methylindazol-6-ol] | < 100 | < 100 | < 100 | < 100 | < 100 | < 100 | < 100
Cc1nc2cc(O)c(-c3ccc4nc(N5CCC(NCC6CC6)C5)ccc4n3)cc2o1 (stereo not shown) [Compound 389, 6-(6-{3-[(cyclopropylmethyl)amino]pyrrolidin-1-yl}-1,5-naphthyridin-2-yl)-2-methyl-1,3-benzoxazol-5-ol] | < 100 | < 100 | < 100 | < 100 | 100 to 1000 | < 100 | < 100
Cc1nc2c(C)c(O)c(-c3ccc4nc(N5CCC(NCC6CC6)C5)ccc4n3)cc2o1 (stereo not shown) [Compound 390, 6-(6-{3-[(cyclopropylmethyl)amino]pyrrolidin-1-yl}-1,5-naphthyridin-2-yl)-2,4-dimethyl-1,3-benzoxazol-5-ol] | < 100 | < 100 | < 100 | < 100 | < 100 | < 100 | < 100
CNC1CCN(c2ccc3nc(-c4cc(F)c5nc(C)cn5c4)ncc3n2)C1 (stereo not shown) [Compound 393, 1-(2-{8-fluoro-2-methylimidazo[1,2-a]pyridin-6-yl}pyrido[3,2-d]pyrimidin-6-yl)-N-methylpyrrolidin-3-amine] | < 100 | < 100 | < 100 | < 100 | 100 to 1000 | 100 to 1000 | 100 to 1000
Cc1c(O)c(-c2ncc3nc(C4CCNC4)ccc3n2)cc2cn(C)nc12 (stereo not shown) [Compound 397, 2,7-dimethyl-5-[6-(pyrrolidin-3-yl)pyrido[3,2-d]pyrimidin-2-yl]indazol-6-ol; trifluoroacetic acid] | 100 to 1000 | 100 to 1000 | 100 to 1000 | < 100 | 1000 to 10000 | 1000 to 10000 | 1000 to 10000
Cc1c(O)c(-c2ncc3nc([C@H]4CCNC4)ccc3n2)cc2cn(C)nc12 [Compound 399] | 1000 to 10000 | 1000 to 10000 | 1000 to 10000 | 100 to 1000 | > 10000 | > 10000 | > 10000
Cn1cc2cc(-c3ncc4nc(C5CCNCC5)ccc4n3)c(O)c(C#N)c2n1 [Compound 403, 6-hydroxy-2-methyl-5-[6-(piperidin-4-yl)pyrido[3,2-d]pyrimidin-2-yl]indazole-7-carbonitrile; trifluoroacetic acid] | < 100 | 100 to 1000 | 100 to 1000 | < 100 | 100 to 1000 | 100 to 1000 | 100 to 1000
Cn1cc2cc(-c3ccc4nc(N5CCC(NC(C)(C)C)C5)ncc4n3)c(O)cc2n1 (stereo not shown) [Compound 404, 5-{2-[3-(tert-butylamino)pyrrolidin-1-yl]pyrido[3,2-d]pyrimidin-6-yl}-2-methylindazol-6-ol] | 100 to 1000 | 100 to 1000 | 100 to 1000 | < 100 | < 100 | < 100 | < 100
COc1cc(-c2ccc3nc(N4CCC(NC(C)(C)C)C4)ncc3n2)cnn1 (stereo not shown) [Compound 405, N-tert-butyl-1-[6-(6-methoxypyridazin-4-yl)pyrido[3,2-d]pyrimidin-2-yl]pyrrolidin-3-amine] | 1000 to 10000 | 1000 to 10000 | 1000 to 10000 | 1000 to 10000 | 1000 to 10000 | 1000 to 10000 | 1000 to 10000
CN[C@H]1CCN(c2ccc3nc(-c4cc(C#N)c5nc(C)cn5c4)ncc3n2)C1 [Compound 406, 2-methyl-6-{6-[(3S)-3-(methylamino)pyrrolidin-1-yl]pyrido[3,2-d]pyrimidin-2-yl}imidazo[1,2-a]pyridine-8-carbonitrile] | 100 to 1000 | 1000 to 10000 | 1000 to 10000 | 100 to 1000 | 1000 to 10000 | 100 to 1000 | 100 to 1000
